Results on ten compounds are retold here after paper PMC11118514, “Eminent Antimicrobial Peptide Resistance in Zymomonas mobilis: A Novel Advantage of Intrinsically Uncoupled Energetics” (Antibiotics, 2024).

≈ marks a conversion by molar mass, not a printed value. Where a SMILES comes first, the peptide text is derived from it. Where no end group is shown, it is not given here.

In assay [1] the test system is Z. mobilis. Type of assay: cell-based, Zymomonas mobilis. As to the method: Z. mobilis strains, Zm6 (ATCC 29191), E. coli (ATCC 25404) and an S. aureus strain (DSM 20231) were subjected to screening for AMP resistance. Z. mobilis strains were routinely grown on the standard culture medium containing (per liter) 5 g of yeast extract, 1 g of KH2PO4, 1 g of (NH4) 2SO4, and 0.5 g of MgSO4·7H2O, supplemented with 40 mL of 50% glucose solution. E. coli was grown on LB medium, containing (per liter) 10 g of tryptone, 5 g of yeast extract, and 10 g of NaCl. S. aureus was grown on Mueller Hinton Broth, 21 g per 1 L, at 30 °C.
(§1) The quantification of antimicrobial resistance against various AMPs was conducted by monitoring the bacterial growth in the presence of peptides at serial dilutions. This assay was performed in 96-well plates using the Infinite® M200 PRO Multimode Microplate Reader from Tecan in Maennedorf, Switzerland, as described in our recent report. All bacterial strains were cultivated at 32 °C for 13–18 h at 200 rpm. Optical density measurements (λ = 550 nm) were automatically recorded at 10 min intervals. The antimicrobial resistance activity was quantified as the minimum inhibitory concentration (MIC), which represents the lowest peptide concentration capable of preventing the growth of bacterial cells.

In assay [2] the test system is E. coli. As to conditions: cited from earlier work. An excerpt: Table 1 Minimal inhibitory concentrations (MICs) of AMPs against selected bacteria, μg/mL. | column: From / E. coli
The subject of the next assay is E. Cancerogenus. The settings on record: cited from earlier work. An excerpt:
Table 1 Minimal inhibitory concentrations (MICs) of AMPs against selected bacteria, μg/mL. | column: From / E. Cancerogenus

In a further assay the test system is P. aeroginosa. As to conditions: cited from earlier work. An excerpt: Table 1 Minimal inhibitory concentrations (MICs) of AMPs against selected bacteria, μg/mL. | column: From / P. aeroginosa
In the next assay the test system is K. pneumonia. As to conditions: cited from earlier work. An excerpt:
Table 1 Minimal inhibitory concentrations (MICs) of AMPs against selected bacteria, μg/mL. | column: From / K. pneumonia

For the next assay, the system named is E. faecium. The settings on record: cited from earlier work. An excerpt: Table 1 Minimal inhibitory concentrations (MICs) of AMPs against selected bacteria, μg/mL. | column: From / E. faecium
The subject of assay [3] is S. aureus. The settings on record: cited from earlier work. From the text:
Table 1 Minimal inhibitory concentrations (MICs) of AMPs against selected bacteria, μg/mL. | column: From / S. aureus

Another assay deals with P. acne. The settings on record: cited from earlier work. From the text: Table 1 Minimal inhibitory concentrations (MICs) of AMPs against selected bacteria, μg/mL. | column: From / P. acne
In assay [4] the test system is E. coli. As to the kind of experiment: Normalized inhibitory concentration (peptide molecules per cell). It is filed as cell-based, Escherichia coli. The settings on record: added AMP normalized to inoculum size, calculated with E. coli cell size parameters.
Excerpt: (§2) We noted, however, that there was a substantial difference between the specific cultivation conditions of Z. mobilis and the rest of the tested bacteria: Z. mobilis required a higher concentration of inoculum. A higher amount of biomass introduced at the start of cultivation might mitigate the antimicrobial effect of AMPs, since this decreases the number of peptide molecules available to penetrate the membrane of each individual cell. Indeed, it was shown that at least […] bound peptide molecules per bacterial cell are needed to kill it. […] For these experiments, we chose one Gram-positive and one Gram-negative model strain (S.aureus and E.coli, respectively) and two AMPs, RP556 and R10. […]
as §1, with “All bacterial strains were cultivated at 32 °C for 13–18 h at 200 rpm.” left out

Assay [5] deals with S. aureus. The assay is described as above. It is filed as cell-based. The settings on record: added AMP normalized to inoculum size, calculated with E. coli cell size parameters.
Excerpt: as §2
as §1, with “All bacterial strains were cultivated at 32 °C for 13–18 h at 200 rpm.” left out

Assay [6] deals with Z. mobilis. Described as above. Type of assay: cell-based, Zymomonas mobilis. As to conditions: added AMP normalized to inoculum size, calculated with E. coli cell size parameters.
Excerpt: as §2
as §1, with “All bacterial strains were cultivated at 32 °C for 13–18 h at 200 rpm.” left out

In the case of `CC(C)[C@H](NC(=O)[C@H](Cc1ccc(O)cc1)NC(=O)[C@H](Cc1c[nH]c2ccccc12)NC(=O)[C@H](CS)NC(=O)[C@H](Cc1ccccc1)NC(=O)CN)C(=O)N[C@@H](CS)C(=O)N[C@@H](C)C(=O)N[C@@H](CCCNC(=N)N)C(=O)N[C@@H](CCCNC(=N)N)C(=O)N[C@@H](CC(N)=O)C(=O)NCC(=O)N[C@@H](C)C(=O)N[C@@H](CCCNC(=N)N)C(=O)N[C@H](C(=O)N[C@@H](CS)C(=O)N[C@@H](Cc1ccc(O)cc1)C(=O)N[C@@H](CCCNC(=N)N)C(=O)N[C@@H](CCCNC(=N)N)C(=O)N[C@@H](CS)C(=O)N[C@@H](CC(N)=O)C(=O)O)C(C)C` [AA139] (H-GFCWYVCARRNGARVCYRRCN-OH; N-terminus and C-terminus assumed), the MIC was 250.0 µg/mL (≈ 97.9 µM) in the assay on Z. mobilis [1]; 4.0 µg/mL (≈ 1.57 µM) in the assay with E. coli [2]; 8.0 µg/mL (≈ 3.13 µM) in the assay on E. Cancerogenus; 16.0 µg/mL (≈ 6.26 µM) in the assay on P. aeroginosa; 8.0 µg/mL (≈ 3.13 µM) with K. pneumonia; 16.0 µg/mL (≈ 6.26 µM) with E. faecium. Besides, the MIC with S. aureus [3] is 8.0 µg/mL (≈ 3.13 µM); in the assay with P. acne, 63.0 µg/mL (≈ 24.7 µM).

For the compound `CC(C)C[C@H](NC(=O)[C@H](CS)NC(=O)[C@H](Cc1ccccc1)NC(=O)[C@@H](N)CCCCN)C(=O)N[C@@H](CCCCN)C(=O)N[C@@H](Cc1ccccc1)C(=O)N[C@@H](CS)C(=O)N[C@@H](Cc1ccccc1)C(=O)N[C@@H](CCCCN)C(=O)NCC(=O)N[C@@H](Cc1ccccc1)C(=O)N[C@@H](CS)C(=O)N[C@@H](Cc1ccccc1)C(=O)N[C@@H](CCCCN)C(=O)N[C@@H](C)C(=O)N[C@@H](CS)C(=O)NCC(=O)N[C@@H](CCCCN)C(=O)O` [R11] (H-KFCLKFCFKGFCFKACGK-OH; N-terminus and C-terminus assumed), the MIC is 250.0 µg/mL (≈ 119 µM) against Z. mobilis [1]; 125.0 µg/mL (≈ 59.4 µM) in the assay on E. coli [2]; 63.0 µg/mL (≈ 29.9 µM) in the assay on E. Cancerogenus; 63.0 µg/mL (≈ 29.9 µM) in the assay with P. aeroginosa; 63.0 µg/mL (≈ 29.9 µM) in the assay on K. pneumonia; 16.0 µg/mL (≈ 7.6 µM) with E. faecium. The MIC with S. aureus [3] is 16.0 µg/mL (≈ 7.6 µM); with P. acne, 0.3 µg/mL (≈ 0.142 µM).

With `CC[C@H](C)[C@H](NC(=O)CNC(=O)[C@H](CCCCN)NC(=O)[C@H](Cc1ccc(O)cc1)NC(=O)[C@H](CS)NC(=O)[C@@H](NC(=O)[C@H](CCCCN)NC(=O)[C@H](Cc1ccccc1)NC(=O)[C@H](CS)NC(=O)[C@H](Cc1c[nH]c2ccccc12)NC(=O)[C@@H](N)CCCNC(=N)N)C(C)C)C(=O)N[C@@H](CS)C(=O)N[C@@H](Cc1ccc(O)cc1)C(=O)N[C@@H](CCCCN)C(=O)N[C@@H](CCCCN)C(=O)N[C@@H](CS)C(=O)N[C@@H](CCCCN)C(=O)O` [RP556] (H-RWCFKVCYKGICYKKCK-OH; N-terminus and C-terminus assumed), the Normalized inhibitory concentration was 2.93 × 10^7 peptide molecules per cell in the assay on E. coli [4], 2.43 × 10^7 peptide molecules per cell in the assay with S. aureus [5] and 1.68 × 10^10 peptide molecules per cell with Z. mobilis [6]. For the same compound, the MIC in the assay with E. coli [2] is 4.0 µg/mL (≈ 1.85 µM); with E. Cancerogenus it was 4.0 µg/mL (≈ 1.85 µM); in the assay on P. aeroginosa it was 2.0 µg/mL (≈ 0.927 µM); with K. pneumonia it was 4.0 µg/mL (≈ 1.85 µM); in the assay with E. faecium, 2.0 µg/mL (≈ 0.927 µM); in the assay on S. aureus [3], 1.0 µg/mL (≈ 0.464 µM). In the assay on P. acne, the MIC is 2.0 µg/mL (≈ 0.927 µM).

In the case of FAKALKALLKALKAL [Oligo10], the MIC in the assay with Z. mobilis [1] is 31.0 µg/mL; in the assay on E. coli [2], 16.0 µg/mL; in the assay on E. Cancerogenus, 63.0 µg/mL; with P. aeroginosa it was 63.0 µg/mL; in the assay with K. pneumonia, 63.0 µg/mL; in the assay on E. faecium, 16.0 µg/mL. In addition, the figures for the MIC in the assay on S. aureus [3] and with P. acne were 4.0 µg/mL and 2.0 µg/mL, respectively.

Take IAKKFWKKFWKFWKIFKKIA [R12]: the MIC with Z. mobilis [1] was 63.0 µg/mL; with E. coli [2], 8.0 µg/mL; in the assay on E. Cancerogenus, 31.0 µg/mL; in the assay with P. aeroginosa it was 4.0 µg/mL; in the assay with K. pneumonia, 31.0 µg/mL; in the assay on E. faecium, 16.0 µg/mL. In addition, the MIC is 8.0 µg/mL in the assay with S. aureus [3] and 0.5 µg/mL with P. acne.

On to IAKKFWPKFWKFWKIFKKIA [R13], for which the MIC was 63.0 µg/mL against Z. mobilis [1]; 4.0 µg/mL in the assay on E. coli [2]; 31.0 µg/mL in the assay on E. Cancerogenus; 4.0 µg/mL with P. aeroginosa; 8.0 µg/mL in the assay on K. pneumonia; 16.0 µg/mL in the assay on E. faecium. In addition, the MIC in the assay with S. aureus [3] was 4.0 µg/mL; in the assay on P. acne it was 0.3 µg/mL.

Take KIAKRIWKRIWKILRRR [PA13]: the MIC against Z. mobilis [1] was 63.0 µg/mL; in the assay with E. coli [2], 31.0 µg/mL; with E. Cancerogenus, 16.0 µg/mL; with P. aeroginosa it was 16.0 µg/mL; with K. pneumonia it was 16.0 µg/mL; in the assay on E. faecium, 4.0 µg/mL. Moreover, the values for the MIC in the assay on S. aureus [3] and with P. acne were 2.0 µg/mL and 16.0 µg/mL, respectively.

As to KKIAKKFWKKFWKFWKIFKK [R10], the MIC against Z. mobilis [1] is 31.0 µg/mL; with E. coli [2] it was 2.0 µg/mL; in the assay with E. Cancerogenus it was 16.0 µg/mL; in the assay with P. aeroginosa, 2.0 µg/mL; with K. pneumonia it was 8.0 µg/mL; with E. faecium, 4.0 µg/mL. Further, the MIC with S. aureus [3] is 4.0 µg/mL; with P. acne, 0.5 µg/mL. In addition, the Normalized inhibitory concentration in the assay on E. coli [4] was 2.30 × 10^7 peptide molecules per cell; with S. aureus [5], 1.98 × 10^8 peptide molecules per cell; in the assay on Z. mobilis [6], 6.58 × 10^9 peptide molecules per cell.

As for KKIAKKFWKKFWKFWPKFWKIFKK [R14], the MIC is 63.0 µg/mL against Z. mobilis [1]; 16.0 µg/mL in the assay on E. coli [2]; 16.0 µg/mL in the assay on E. Cancerogenus; 4.0 µg/mL in the assay with P. aeroginosa; 4.0 µg/mL with K. pneumonia; 8.0 µg/mL with E. faecium. For the same compound, the MIC is 8.0 µg/mL with S. aureus [3] and 1.0 µg/mL in the assay on P. acne.

With VKRWKKWWRKWKKWV [LZ1], the MIC is 31.0 µg/mL in the assay on E. coli [2]; 16.0 µg/mL with E. Cancerogenus; 8.0 µg/mL with P. aeroginosa; 16.0 µg/mL in the assay with K. pneumonia; 4.0 µg/mL in the assay with E. faecium; 2.0 µg/mL in the assay on S. aureus [3]. Also, the MIC with P. acne was 8.0 µg/mL.
